Patent US9187424B1, “Aryl dihydropyridinones and piperidinone MGAT2 inhibitors” (Bristol-Myers Squibb Company, priority 2011, dated 2015)

Molecular target: Human MGAT-2 (Homo sapiens (Human), UniProt Q3SYC2)
Assay: MGAT LCMS Assay (human MGAT-2);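 also: diolein product quantified by LC/MS with positive APCI, expressed as peak area ratio versus an internal standard, and this ratio used to derive IC50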
Assay type: biochemical
Conditions: human MGAT-2 membranes expressed in Sf9 cells; 2-oleoylglycerol and oleoyl-Coenzyme A; read-out: h-MGAT2 IC50 (nM) LCMS Assay

Chain of Human MGAT-2 (Q3SYC2 whole entry): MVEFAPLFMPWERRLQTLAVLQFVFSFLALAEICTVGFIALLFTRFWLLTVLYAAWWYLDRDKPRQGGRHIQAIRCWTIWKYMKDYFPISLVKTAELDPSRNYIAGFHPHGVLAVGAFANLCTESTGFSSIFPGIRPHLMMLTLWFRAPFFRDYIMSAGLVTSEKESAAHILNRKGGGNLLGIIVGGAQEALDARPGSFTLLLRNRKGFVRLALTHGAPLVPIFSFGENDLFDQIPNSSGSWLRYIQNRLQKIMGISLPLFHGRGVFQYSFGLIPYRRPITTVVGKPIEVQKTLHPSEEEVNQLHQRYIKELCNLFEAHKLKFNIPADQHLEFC

| IC50 [nM] | SMILES |
| --- | --- |
| 489 | O=C1NC(c2ccc(OCCCC(F)(F)F)cc2)(C(F)(F)F)CC(c2ccc(-n3cccn3)cc2)=C1c1nn[nH]n1 (stereo not drawn) [Example 236] |
| 130 | O=C1NC(c2ccc(OCCCC(F)(F)F)cc2)(C(F)(F)F)CC(c2ccc3c(c2)CCO3)=C1c1nn[nH]n1 (stereo not drawn) [Example 237] |
| 7 | CN(C)c1ccc(C2=C(c3nn[nH]n3)C(=O)NC(c3ccc(OCCCC(F)(F)F)cc3)(C(F)(F)F)C2)cc1 (stereo not drawn) [Example 238] |
| 15 | Cc1ccc(C2=C(NC(=O)CS(C)(=O)=O)C(=O)NC(c3ccc(OCCCC(F)(F)F)cc3)(C(F)(F)F)C2)cc1 (stereo not drawn) [Example 239] |
| 7 | COc1ccc(C2=C(c3nn[nH]n3)C(=O)NC(c3ccc(OCC(F)(F)F)cc3)(C(F)(F)F)C2)cc1 (stereo not drawn) [Example 240] |
| 44 | O=C1NC(c2ccc(OCCC(F)(F)F)cc2)(C(F)(F)F)CC(c2ccc(OC(F)(F)F)cc2)=C1c1nn[nH]n1 (stereo not drawn) [Example 242] |
| 14 | O=C1NC(c2ccc(OCCCC(F)(F)F)cc2)(C(F)(F)F)CC(c2ccc(OC(F)(F)F)cc2)=C1c1nn[nH]n1 (stereo not drawn) [Example 243] |
| 61 | COc1ccc(C2=C(c3nn[nH]n3)C(=O)NC(c3ccc(OCCCC(F)(F)F)cc3)(C(F)(F)F)C2)cc1 (stereo not drawn) [Example 244] |
| 46 | O=C1NC(c2ccc(OCCCC(F)(F)F)cc2)(C(F)(F)F)CC(c2ccc(OC(F)F)cc2)=C1c1nn[nH]n1 (stereo not drawn) [Example 245] |
| 36 | Cc1ccc(C2=C(NC(=O)c3cn(C)nn3)C(=O)NC(c3ccc(OCCCC(F)(F)F)cc3)(C(F)(F)F)C2)cc1 (stereo not drawn) [Example 246] |
| 51 | COc1ccc(C2=C(c3nn[nH]n3)C(=O)NC(c3ccc(OCCCCCC(F)(F)F)cc3)(C(F)(F)F)C2)cc1 (stereo not drawn) [Example 247] |
| 8 | O=C1NC(c2ccc(OCCCCCC(F)(F)F)cc2)(C(F)(F)F)CC(c2ccc(OCC(F)F)cc2)=C1c1nn[nH]n1 (stereo not drawn) [Example 248] |
| 185 | Cc1ccc(C2=C(NC(=O)c3ccccc3F)C(=O)NC(c3ccc(OCCCC(F)(F)F)cc3)(C(F)(F)F)C2)cc1 (stereo not drawn) [Example 249] |
| 243 | CC(=O)C(=O)NC1=C(c2ccc(C)cc2)CC(c2ccc(OCCCC(F)(F)F)cc2)(C(F)(F)F)NC1=O (stereo not drawn) [Example 250] |
| 3 | CS(=O)(=O)CC(=O)NC1=C(c2ccc(OCC(F)F)cc2)CC(c2ccc(OCCCC(F)(F)F)cc2)(C(F)(F)F)NC1=O (stereo not drawn) [Example 251] |
| 7 | COc1ccc(C2=C(NC(=O)CS(C)(=O)=O)C(=O)NC(c3ccc(OCCCC(F)(F)F)cc3)(C(F)(F)F)C2)cc1 (stereo not drawn) [Example 252] |
| 411 | Cc1ccc(C2=C(NC(=O)[C@@H](C)O)C(=O)NC(c3ccc(OCCCC(F)(F)F)cc3)(C(F)(F)F)C2)cc1 (stereo partly drawn) [Example 253] |
| 170 | CCNC(=O)NC1=C(c2ccc(OCC(F)F)cc2)CC(c2ccc(OCCCC(F)(F)F)cc2)(C(F)(F)F)NC1=O (stereo not drawn) [Example 254] |
| 702 | CCNC(=O)NC1=C(c2ccc(C)cc2)CC(c2ccc(OCCCC(F)(F)F)cc2)(C(F)(F)F)NC1=O (stereo not drawn) [Example 255] |
| 22 | Cc1ccc(C2=C(C#N)C(=O)NC(c3ccc(OCCCC(F)(F)F)cc3)(C(F)(F)F)C2)cc1F (stereo not drawn) [Example 256] |
| 1150 | COc1ccc(C2=C(C#N)C(=O)NC(c3ccc(OCCCC(F)(F)F)cc3)(C(F)(F)F)C2)cc1Cl (stereo not drawn) [Example 258] |
| 15 | Cc1ccc(C2=C(C#N)C(=O)NC(c3ccc(OCCCC(F)(F)F)cc3)(C(F)(F)F)C2)cc1Cl (stereo not drawn) [Example 259] |

| IC50 [nM] | SMILES |
| --- | --- |
| 56 | COCc1ccc(C2=C(C#N)C(=O)NC(c3ccc(OCCCC(F)(F)F)cc3)(C(F)(F)F)C2)cc1 (stereo not drawn) [Example 260] |
| 1220 | N#CC1=C(c2ccc(OC(F)(F)F)c(F)c2)CC(c2ccc(OCCCC(F)(F)F)cc2)(C(F)(F)F)NC1=O (stereo not drawn) [Example 261] |
| 96 | COc1cc(C2=C(C#N)C(=O)NC(c3ccc(OCCCC(F)(F)F)cc3)(C(F)(F)F)C2)ccc1C (stereo not drawn) [Example 262] |
| 103 | CCOc1ccc(C2=C(C#N)C(=O)NC(c3ccc(OCCCC(F)(F)F)cc3)(C(F)(F)F)C2)cc1Cl (stereo not drawn) [Example 263] |
| 46 | CCOc1ccc(C2=C(C#N)C(=O)NC(c3ccc(OCCCC(F)(F)F)cc3)(C(F)(F)F)C2)cc1F (stereo not drawn) [Example 264] |
| 796 | Cc1ccc(C2=C(c3nn[nH]n3)C(=O)NC(c3cccc(OCCCC(F)(F)F)c3)(C(F)(F)F)C2)cc1 (stereo not drawn) [Example 267] |
| 12 | O=C1NC(c2ccc(OCCCC(F)(F)F)cc2)(C(F)(F)F)CC(c2ccc(CC(F)(F)F)cc2)=C1c1nn[nH]n1 (stereo not drawn) [Example 271] |
| 1 | O=C1NC(c2ccc(OCCCCCC(F)(F)F)cc2F)(C(F)(F)F)CC(c2ccc(OC(F)F)cc2)=C1c1nn[nH]n1 (stereo not drawn) [Example 274] |
| 2 | O=C1NC(c2ccc(OCCCC(F)(F)F)cc2)(C(F)(F)F)CC(c2ccc(OC(F)F)cc2)=C1NC(=O)c1ccncc1 (stereo not drawn) [Example 275] |
| 2 | O=C1NC(c2ccc(OCCCCCC(F)(F)F)cc2F)(C(F)(F)F)CC(c2ccc3ccccc3c2)=C1c1nn[nH]n1 (stereo not drawn) [Example 276] |
| 2 | O=C1NC(c2ccc(OCCCC(F)(F)F)cc2F)(C(F)(F)F)CC(c2ccc(CC3CC3)cc2)=C1c1nn[nH]n1 (stereo not drawn) [Example 277] |
| 2 | Cc1ccc(C2=C(c3nn[nH]n3)C(=O)NC(c3ccc(OCCCCC(F)(F)F)cc3F)(C(F)(F)F)C2)cc1 (stereo not drawn) [Example 278] |
| 2 | Cc1ccc(C2=C(NC(=O)CS(C)(=O)=O)C(=O)NC(c3ccc(OCc4ccccc4)cc3)(C(F)(F)F)C2)cc1 (stereo not drawn) [Example 279] |
| 2 | O=C(Nc1cccnc1)C1=C(c2ccc(OC(F)F)cc2)CC(c2ccc(OCCCC(F)(F)F)cc2)(C(F)(F)F)NC1=O (stereo not drawn) [Example 280] |
| 3 | Cc1ccc(C2=C(C(=O)Nc3cc(C)no3)C(=O)NC(c3ccc(OCCCC(F)(F)F)cc3)(C(F)(F)F)C2)cc1 (stereo not drawn) [Example 281] |
| 3 | CCOc1ccc(C2=C(c3nn[nH]n3)C(=O)NC(c3ccc(OCCCCCC(F)(F)F)cc3F)(C(F)(F)F)C2)cc1 (stereo not drawn) [Example 283] |
| 4 | O=C1NC(c2ccc(OCCCCCC(F)(F)F)cc2F)(C(F)(F)F)CC(c2ccc(CC(F)(F)F)cc2)=C1c1nn[nH]n1 (stereo not drawn) [Example 284] |
| 4 | Cc1ccc(C2=C(c3nn[nH]n3)C(=O)NC(c3ccc(OCCC4CC4)cc3)(C(F)(F)F)C2)cc1 (stereo not drawn) [Example 285] |
| 4 | Cc1ccc(C2=C(c3nn[nH]n3)C(=O)NC(c3ccc(OCCCC(F)(F)F)cc3)(C(F)(F)F)C2)c(F)c1 (stereo not drawn) [Example 286] |
| 13 | Cc1ccc(C2=C(c3nn[nH]n3)C(=O)NC(c3ccc(OCCCCCC(F)(F)F)c(C)c3)(C(F)(F)F)C2)cc1 (stereo not drawn) [Example 287] |
| 19 | Cc1ccc(C2=C(c3nn[nH]n3)C(=O)NC(c3ccc(OCC4CC(F)(F)C4)cc3)(C(F)(F)F)C2)cc1 (stereo not drawn) [Example 288] |
| 19 | Cc1ccc(C2=C(c3nn[nH]n3)C(=O)NC(c3ccc(C#CCC4CCCCC4)cc3)(C(F)(F)F)C2)cc1 (stereo not drawn) [Example 289] |

| IC50 [nM] | SMILES |
| --- | --- |
| 56 | Cc1ccc(C2=C(c3nn[nH]n3)C(=O)NC(c3ccc(C#CCOCc4ccccc4)cc3)(C(F)(F)F)C2)cc1 (stereo not drawn) [Example 290] |
| 178 | Cc1ccc(C2=C(c3nn[nH]n3)C(=O)NC(c3ccc(C#CC4CCCCC4)cc3)(C(F)(F)F)C2)cc1 (stereo not drawn) [Example 291] |
| 304 | CCCCCCCc1cnc(C2(C(F)(F)F)CC(c3ccc(C)cc3)=C(c3nn[nH]n3)C(=O)N2)s1 (stereo not drawn) [Example 292] |
| 7 | CCCCCC#CC1(C(F)(F)F)CC(c2ccc(C)cc2)=C(c2nn[nH]n2)C(=O)N1 (stereo not drawn) [Example 293] |
| 84 | COc1ccc(C2=C(c3nn[nH]n3)C(=O)NC(C#CCCc3ccccc3)(C(F)(F)F)C2)cc1 (stereo not drawn) [Example 294] |
| 183 | COc1ccc(C2=C(c3nn[nH]n3)C(=O)NC(C#CCCC(C)C)(C(F)(F)F)C2)cc1 (stereo not drawn) [Example 295] |
| 2 | COc1ccc(NC(=O)C2=C(c3ccc(C)cc3F)CC(c3ccc(OCCCC(F)(F)F)cc3)(C(F)(F)F)NC2=O)cc1 (stereo not drawn) [Example 296] |
| 639 | Cc1ccc(C2=C(NC(=O)CNS(C)(=O)=O)C(=O)NC(c3ccc(OCCCC(F)(F)F)cc3)(C(F)(F)F)C2)cc1 (stereo not drawn) [Example 297] |
| 2 | CCCCCCC#CC1(C(F)(F)F)CC(c2ccc(C)cc2)=C(NC(=O)CNS(C)(=O)=O)C(=O)N1 (stereo not drawn) [Example 298] |
| 11 | Cc1ccc(C2=C(NC(=O)c3cccnc3)C(=O)NC(c3ccc(OCCCC(F)(F)F)cc3)(C(F)(F)F)C2)cc1 (stereo not drawn) [Example 299] |
| 11 | CCCCCCC#CC1(C(F)(F)F)CC(c2ccc(C)cc2)=C(NC(=O)c2cccnc2)C(=O)N1 (stereo not drawn) [Example 300] |
| 19 | O=C1NC(c2ccc(OCCCCCC(F)(F)F)c(F)c2)(C(F)(F)F)CC(c2ccc(OC(F)F)cc2)=C1c1nn[nH]n1 (stereo not drawn) [Example 301] |
| 105 | CCCOc1ccc(C2(C(F)(F)F)CC(c3ccc(C)cc3)=C(NC(=O)CS(C)(=O)=O)C(=O)N2)cc1 (stereo not drawn) [Example 302] |
| 6 | O=C1NC(c2ccc(OCCCCCC(F)(F)F)c(F)c2)(C(F)(F)F)CC(c2ccc3ccccc3c2)=C1c1nn[nH]n1 (stereo not drawn) [Example 304] |
| 94 | CCOc1ccc(C2=C(c3nn[nH]n3)C(=O)NC(c3ccc(OCCCCCC(F)(F)F)c(F)c3)(C(F)(F)F)C2)cc1 (stereo not drawn) [Example 305] |
| 3 | O=C1NC(c2ccc(OCCCCCC(F)(F)F)c(F)c2)(C(F)(F)F)CC(c2ccc(CC(F)(F)F)cc2)=C1c1nn[nH]n1 (stereo not drawn) [Example 306] |
| 3 | CCCCCCC#Cc1ccc(C2(C(F)(F)F)CC(c3ccc(OC(F)F)cc3)=C(c3nn[nH]n3)C(=O)N2)cc1F (stereo not drawn) [Example 307] |
| 61 | CCCCCCC#Cc1ccc(C2(C(F)(F)F)CC(c3ccc(OCC)cc3)=C(c3nn[nH]n3)C(=O)N2)cc1F (stereo not drawn) [Example 308] |
| 1 | O=C1NC(c2ccc(OCCCCCC(F)(F)F)c(F)c2)(C(F)(F)F)CC(c2ccc3ccccc3c2)=C1c1nn[nH]n1 (stereo not drawn) [Example 309] |
| 4 | Cc1ccc(C2=C(NC(=O)c3nnn[nH]3)C(=O)NC(c3ccc(OCCCC(F)(F)F)cc3)(C(F)(F)F)C2)cc1 (stereo not drawn) [Example 310] |

| SMILES | IC50 [nM] |
| --- | --- |
| COOCNc1ccc(C2=C(C#N)C(=O)NC(c3ccc(OCCCC(F)(F)F)cc3)(C(F)(F)F)C2)cc1 (stereo not drawn) [Example 257] | 421 |
| CCOP(=O)(CC(=O)NC1=C(c2ccc(C)cc2)CC(c2ccc(OCCCC(F)(F)F)cc2)(C(F)(F)F)NC1=O)OCC (stereo not drawn) [Example 282] | 3 |
